Source: the NIST ThermoML archive (doi:10.1016/j.jct.2016.12.036)
Numbers after ± are expanded uncertainties. One block for each compound: values may come before it.

Assays:
[1] = excess molar enthalpy (molar enthalpy of mixing); xn = mol fraction of the nth substance listed; conditions: 298 K, 81.5 kPa, Liquid, Isoperibol calorimetry
[2] = refractive index (Na D-line) (dimensionless); conditions: 298.15 K; 81.5 kPa; Liquid; Standard Abbe refractometry
[3] = 298.15 K, 81.5 kPa, Liquid; for viscosity: Capillary tube (Ostwald / Ubbelohde) method; for mass density: Vibrating tube method

SMILES: NCCN [ethane-1,2-diamine] + CCC(C)O
excess molar enthalpy ([1]; x1 = 0.0999): -0.204 ± 0.00263 kcal/mol
excess molar enthalpy ([1]; x1 = 0.1999): -0.369 ± 0.00454 kcal/mol
excess molar enthalpy ([1]; x1 = 0.3009): -0.461 ± 0.00574 kcal/mol
excess molar enthalpy ([1]; x1 = 0.4025): -0.473 ± 0.00598 kcal/mol
excess molar enthalpy ([1]; x1 = 0.5055): -0.424 ± 0.00526 kcal/mol
excess molar enthalpy ([1]; x1 = 0.6098): -0.338 ± 0.0043 kcal/mol
excess molar enthalpy ([1]; x1 = 0.6982): -0.237 ± 0.00311 kcal/mol
excess molar enthalpy ([1]; x1 = 0.7999): -0.143 ± 0.00189 kcal/mol
excess molar enthalpy ([1]; x1 = 0.9): -0.0601 ± 0.000908 kcal/mol

SMILES: NCCN [ethane-1,2-diamine] + CCCCO
excess molar enthalpy ([1]; x1 = 0.1003): -0.275 ± 0.00359 kcal/mol
excess molar enthalpy ([1]; x1 = 0.2002): -0.486 ± 0.00598 kcal/mol
excess molar enthalpy ([1]; x1 = 0.3011): -0.594 ± 0.00741 kcal/mol
excess molar enthalpy ([1]; x1 = 0.4024): -0.6 ± 0.00741 kcal/mol
excess molar enthalpy ([1]; x1 = 0.5053): -0.535 ± 0.00669 kcal/mol
excess molar enthalpy ([1]; x1 = 0.6097): -0.428 ± 0.00526 kcal/mol
excess molar enthalpy ([1]; x1 = 0.6983): -0.312 ± 0.00406 kcal/mol
excess molar enthalpy ([1]; x1 = 0.8): -0.192 ± 0.00239 kcal/mol
excess molar enthalpy ([1]; x1 = 0.8999): -0.0853 ± 0.00122 kcal/mol

SMILES: NCCN [ethane-1,2-diamine] + CC(C)O
excess molar enthalpy ([1]; x1 = 0.1001): -0.209 ± 0.00263 kcal/mol
excess molar enthalpy ([1]; x1 = 0.2): -0.372 ± 0.00478 kcal/mol
excess molar enthalpy ([1]; x1 = 0.3007): -0.462 ± 0.00574 kcal/mol
excess molar enthalpy ([1]; x1 = 0.4033): -0.478 ± 0.00598 kcal/mol
excess molar enthalpy ([1]; x1 = 0.5073): -0.435 ± 0.0055 kcal/mol
excess molar enthalpy ([1]; x1 = 0.5963): -0.363 ± 0.00454 kcal/mol
excess molar enthalpy ([1]; x1 = 0.6988): -0.275 ± 0.00359 kcal/mol
excess molar enthalpy ([1]; x1 = 0.7998): -0.179 ± 0.00232 kcal/mol
excess molar enthalpy ([1]; x1 = 0.8998): -0.0844 ± 0.0012 kcal/mol

SMILES: NCCN [ethane-1,2-diamine] + CO
excess molar enthalpy ([1]; x1 = 0.0995): -0.486 ± 0.00621 kcal/mol
excess molar enthalpy ([1]; x1 = 0.1972): -0.831 ± 0.0103 kcal/mol
excess molar enthalpy ([1]; x1 = 0.295): -1.01 ± 0.0124 kcal/mol
excess molar enthalpy ([1]; x1 = 0.3909): -1.05 ± 0.0129 kcal/mol
excess molar enthalpy ([1]; x1 = 0.4934): -0.976 ± 0.012 kcal/mol
excess molar enthalpy ([1]; x1 = 0.5948): -0.834 ± 0.0103 kcal/mol
excess molar enthalpy ([1]; x1 = 0.6953): -0.655 ± 0.00813 kcal/mol
excess molar enthalpy ([1]; x1 = 0.7971): -0.449 ± 0.00574 kcal/mol
excess molar enthalpy ([1]; x1 = 0.8994): -0.225 ± 0.00311 kcal/mol

SMILES: NCCN [ethane-1,2-diamine] + CCCO
excess molar enthalpy ([1]; x1 = 0.1): -0.307 ± 0.00406 kcal/mol
excess molar enthalpy ([1]; x1 = 0.199): -0.529 ± 0.00669 kcal/mol
excess molar enthalpy ([1]; x1 = 0.3043): -0.65 ± 0.00813 kcal/mol
excess molar enthalpy ([1]; x1 = 0.4066): -0.66 ± 0.00813 kcal/mol
excess molar enthalpy ([1]; x1 = 0.5106): -0.594 ± 0.00741 kcal/mol
excess molar enthalpy ([1]; x1 = 0.5944): -0.507 ± 0.00621 kcal/mol
excess molar enthalpy ([1]; x1 = 0.697): -0.387 ± 0.00478 kcal/mol
excess molar enthalpy ([1]; x1 = 0.7983): -0.254 ± 0.00335 kcal/mol
excess molar enthalpy ([1]; x1 = 0.8996): -0.121 ± 0.00167 kcal/mol

SMILES: NCCN [ethane-1,2-diamine] + CCO
excess molar enthalpy ([1]; x1 = 0.1003): -0.354 ± 0.00454 kcal/mol
excess molar enthalpy ([1]; x1 = 0.201): -0.6 ± 0.00741 kcal/mol
excess molar enthalpy ([1]; x1 = 0.301): -0.72 ± 0.00884 kcal/mol
excess molar enthalpy ([1]; x1 = 0.4042): -0.735 ± 0.00908 kcal/mol
excess molar enthalpy ([1]; x1 = 0.4958): -0.688 ± 0.0086 kcal/mol
excess molar enthalpy ([1]; x1 = 0.5987): -0.584 ± 0.00717 kcal/mol
excess molar enthalpy ([1]; x1 = 0.7006): -0.452 ± 0.00574 kcal/mol
excess molar enthalpy ([1]; x1 = 0.8007): -0.305 ± 0.00382 kcal/mol
excess molar enthalpy ([1]; x1 = 0.8987): -0.153 ± 0.00208 kcal/mol

SMILES: NCCN [ethane-1,2-diamine]
refractive index [2]: 1.4537 ± 0.0011
viscosity [3]: 1.385 ± 0.029 mPa·s
mass density [3]: 892.8 ± 1 kg/m3

Other lines, results leading:

refractive index [2]: 1.3967 ± 0.001
viscosity [3]: 2.572 ± 0.055 mPa·s
mass density [3]: 806 ± 1 kg/m3
SMILES: CCCCO [butan-1-ol]

refractive index [2]: 1.3825 ± 0.001
viscosity [3]: 1.943 ± 0.041 mPa·s
mass density [3]: 799.5 ± 1 kg/m3
SMILES: CCCO [propan-1-ol]

refractive index [2]: 1.3263 ± 0.0011
viscosity [3]: 0.573 ± 0.012 mPa·s
mass density [3]: 786.7 ± 1 kg/m3
SMILES: CO [methanol]

refractive index [2]: 1.3588 ± 0.001
viscosity [3]: 1.093 ± 0.023 mPa·s
mass density [3]: 785.2 ± 1 kg/m3
SMILES: CCO [ethanol]

refractive index [2]: 1.3745 ± 0.0011
viscosity [3]: 2.067 ± 0.044 mPa·s
mass density [3]: 781 ± 1 kg/m3
SMILES: CC(C)O [propan-2-ol]

refractive index [2]: 1.3945 ± 0.0011
viscosity [3]: 3.05 ± 0.067 mPa·s
mass density [3]: 802.5 ± 1 kg/m3
SMILES: CCC(C)O (stereo not given) [butan-2-ol]
